{"source": "patent EP0555116B1", "about": "“Compositions based on antiseptics and their applications” (HUTCHINSON, priority 1992, dated 1993)", "system": "virus HIV1", "assay": "Infectivity of HIV1 for normal human T lymphocytes after 10 min treatment of the virus; reverse transcriptase activity (ATI) in culture supernatants", "type": "cell-based", "conditions": "for action virucide: produit utilisé seul, 0,002", "description": "Pour l'étude du pouvoir infectieux résiduel après traitement des préparations virales, le milieu de culture des lymphocytes T humains normaux (milieu complet) correspond au milieu ci-dessus auquel sont ajoutés 10 % d'interleukine II, du polybrène (2 µg/ml) et du sérum anti-interféron humain 1/2500 (M.A. REY et al., Biochem. Biophys. Res. Com., 1984, 121, 126-133).\nL'infectivité est étudiée sur des lymphocytes T obtenus à partir du sang périphérique d'un donneur humain sain, et séparés sur un gradient de Ficoll.\nLes lymphocytes sont stimulés pendant 3 jours par de la phytohémagglutinine P (PHA-P), diluée au 1/500 et cultivés dans du milieu complet. Les cellules T blastiques sont infectées par le virus, traité ou non, pour mettre en évidence le pouvoir infectieux résiduel.\nLe virus est obtenu à partir d'un surnageant de culture de la lignée CEM infectée par HIV1. Cette lignée T lymphoblastoïde infectée par HIV1 est utilisée pour la production virale.\nLe titre des surnageants utilisés est évalué après dosage de l'activité transcriptase inverse (ATI) du virus.\nDans les essais qui suivent, on a utilisé un surnageant dont l'ATI est de 1,8.10^6 cpm/ml. 2. Méthodes :\n• Préparation de la solution virale : plusieurs tubes contenant 1 ml de surnageant viral, ATI 1,8.10^6 cmp/ml sont concentrés par ultracentrifugation. Les culots de virus ainsi obtenus sont repris soit par chacune des dilutions de produit réalisées dans de l'eau bidistillée stérile, soit par de l'eau (virus témoin non traité). • Traitement des préparations virales : les préparations virales concentrées sont toutes traitées selon le protocole indiqué ci-dessous : • . échantillons viraux traités : les culots de virus concentrés par ultracentrifugation sont resuspendus dans 100 µl de chacune des concentrations en produits étudiés et incubés pendant 10 minutes. • . échantillon viral témoin : témoin virus non traité : le produit est remplacé par 100 µl d'eau bidistillée stérile. A la suite de ce temps d'incubation de 10 minutes, le virus présent dans chaque échantillon est rincé puis reconcentré par addition de 12 ml de milieu RPMI 1640 et ultracentrifugation. Les culots de virus sont alors repris dans 1 ml de milieu complet et utilisés pour l'infection de lymphocytes T humains normaux. • Mesure de l'infectivité des échantillons : 4.10^6 lymphocytes T humains normaux sont infectés avec chacune des préparations virales traitées ou témoins indiquées ci-dessus. L'infection des cellules T est réalisée selon une méthode précédemment décrite (F. BARRE-SINOUSSI et al., Science, 1983, 220, 868-871) : en résumé 4.10^6 cellules en suspension dans 1 ml de milieu complet sont incubées avec 1 ml de chacune des préparations virales traitées ou témoins pendant 1 heure à 37°C. Après 2 lavages par plusieurs ml de milieu de culture, les suspensions cellulaires sont ajustées à la concentration de 1.10^6 cellules par ml. Le jour de l'infection est considéré comme jour 0. • . Cellules témoin : 4.10^6 lymphocytes T sont cultivés et passés tous les 3 ou 4 jours dans les mêmes conditions que tous les autres échantillons. Ce témoin correspond au témoin négatif de la production virale au cours de la manipulation. La production virale au cours du temps est déterminée en mesurant l'activité transcriptase inverse présente dans les surnageants de culture selon le protocole décrit ci-dessous. • . Mesure de l'activité transcriptase inverse des préparations virales témoins et des échantillons viraux traités par les produits : ce dosage permet d'évaluer la présence de virus résiduel non inactivé dans l'échantillon de départ. Il est réalisé à partir de 1 ml de surnageant de culture, prélevé tous les 3 ou 4 jours et ultracentrifugé.\nLes activités enzymatiques sont mesurées dans 50 µl d'un mélange réactionnel contenant 50 mM Tris pH 7,8, 20 mM MgCl2, 20 mM KCl, 2 mM dithiotréitol, 0,25 OD/ml oligo dT, 0,25 OD/ml poly rA, 0,1 % Triton X 100 et 2,5 µCi 3H DTTP. […]", "data": [{"smiles": "CCCCCCCCCC[N+](C)(C)CCCCCCCCCC", "note": "[Bardac®, chlorure de didécyldiméthylammonium]", "values": [{"measurement": "ATI dans les surnageants", "setting": "Bardac® 0,01 %, J3", "value": 334, "unit": "cpm/ml"}, {"measurement": "ATI dans les surnageants", "setting": "Bardac® 0,01 %, J6", "value": 222, "unit": "cpm/ml"}, {"measurement": "ATI dans les surnageants", "setting": "Bardac® 0,01 %, J10", "value": 1768, "unit": "cpm/ml"}, {"measurement": "ATI dans les surnageants", "setting": "Bardac® 0,01 %, J13", "value": 1592, "unit": "cpm/ml"}, {"measurement": "ATI dans les surnageants", "setting": "Bardac® 0,01 %, J17", "value": 190, "unit": "cpm/ml"}, {"measurement": "ATI dans les surnageants", "setting": "Bardac® 0,01 %, J20", "value": 390, "unit": "cpm/ml"}, {"measurement": "ATI dans les surnageants", "setting": "Bardac® 0,01 %, J23", "value": 1328, "unit": "cpm/ml"}, {"measurement": "ATI dans les surnageants", "setting": "Bardac® 0,01 %, J27", "value": 780, "unit": "cpm/ml"}, {"measurement": "ATI dans les surnageants", "setting": "Bardac® 0,01 %, J30", "value": 1000, "unit": "cpm/ml"}, {"measurement": "ATI dans les surnageants", "setting": "Bardac® 0,0004 %, J3", "value": 702, "unit": "cpm/ml"}, {"measurement": "ATI dans les surnageants", "setting": "Bardac® 0,0004 %, J6", "value": 18136, "unit": "cpm/ml"}, {"measurement": "ATI dans les surnageants", "setting": "Bardac® 0,0004 %, J10", "value": 117326, "unit": "cpm/ml"}, {"measurement": "ATI dans les surnageants", "setting": "Bardac® 0,0004 %, J13", "value": 74214, "unit": "cpm/ml"}, {"measurement": "ATI dans les surnageants", "setting": "Bardac® 0,0004 %, J17", "value": 50674, "unit": "cpm/ml"}, {"measurement": "ATI dans les surnageants", "setting": "Bardac® 0,0004 %, J20", "value": 22478, "unit": "cpm/ml"}, {"measurement": "ATI dans les surnageants", "setting": "Bardac® 0,0004 %, J23", "value": 13806, "unit": "cpm/ml"}, {"measurement": "ATI dans les surnageants", "setting": "Bardac® 0,0004 %, J27", "value": 7800, "unit": "cpm/ml"}, {"measurement": "ATI dans les surnageants", "setting": "Bardac® 0,0004 %, J30", "value": 4426, "unit": "cpm/ml"}, {"measurement": "ATI dans les surnageants", "setting": "Bardac® 0,002 %, J3", "value": 464, "unit": "cpm/ml"}, {"measurement": "ATI dans les surnageants", "setting": "Bardac® 0,002 %, J6", "value": 2472, "unit": "cpm/ml"}, {"measurement": "ATI dans les surnageants", "setting": "Bardac® 0,002 %, J10", "value": 16066, "unit": "cpm/ml"}, {"measurement": "ATI dans les surnageants", "setting": "Bardac® 0,002 %, J13", "value": 24902, "unit": "cpm/ml"}, {"measurement": "ATI dans les surnageants", "setting": "Bardac® 0,002 %, J17", "value": 77754, "unit": "cpm/ml"}, {"measurement": "ATI dans les surnageants", "setting": "Bardac® 0,002 %, J20", "value": 75554, "unit": "cpm/ml"}, {"measurement": "ATI dans les surnageants", "setting": "Bardac® 0,002 %, J23", "value": 101394, "unit": "cpm/ml"}, {"measurement": "ATI dans les surnageants", "setting": "Bardac® 0,002 %, J27", "value": 80560, "unit": "cpm/ml"}, {"measurement": "ATI dans les surnageants", "setting": "Bardac® 0,002 %, J30", "value": 64692, "unit": "cpm/ml"}, {"measurement": "ATI dans les surnageants", "setting": "Bardac® 0,004 %, J3", "value": 346, "unit": "cpm/ml"}, {"measurement": "ATI dans les surnageants", "setting": "Bardac® 0,004 %, J6", "value": 298, "unit": "cpm/ml"}, {"measurement": "ATI dans les surnageants", "setting": "Bardac® 0,004 %, J10", "value": 160, "unit": "cpm/ml"}, {"measurement": "ATI dans les surnageants", "setting": "Bardac® 0,004 %, J13", "value": 170, "unit": "cpm/ml"}, {"measurement": "ATI dans les surnageants", "setting": "Bardac® 0,004 %, J17", "value": 350, "unit": "cpm/ml"}, {"measurement": "ATI dans les surnageants", "setting": "Bardac® 0,004 %, J20", "value": 218, "unit": "cpm/ml"}, {"measurement": "ATI dans les surnageants", "setting": "Bardac® 0,004 %, J23", "value": 444, "unit": "cpm/ml"}, {"measurement": "ATI dans les surnageants", "setting": "Bardac® 0,004 %, J27", "value": 244, "unit": "cpm/ml"}, {"measurement": "ATI dans les surnageants", "setting": "Bardac® 0,004 %, J30", "value": 264, "unit": "cpm/ml"}, {"measurement": "ATI dans les surnageants", "setting": "Bardac® 0,006 %, J3", "value": 320, "unit": "cpm/ml"}, {"measurement": "ATI dans les surnageants", "setting": "Bardac® 0,006 %, J6", "value": 326, "unit": "cpm/ml"}, {"measurement": "ATI dans les surnageants", "setting": "Bardac® 0,006 %, J10", "value": 204, "unit": "cpm/ml"}, {"measurement": "ATI dans les surnageants", "setting": "Bardac® 0,006 %, J13", "value": 248, "unit": "cpm/ml"}, {"measurement": "ATI dans les surnageants", "setting": "Bardac® 0,006 %, J17", "value": 364, "unit": "cpm/ml"}, {"measurement": "ATI dans les surnageants", "setting": "Bardac® 0,006 %, J20", "value": 180, "unit": "cpm/ml"}, {"measurement": "ATI dans les surnageants", "setting": "Bardac® 0,006 %, J23", "value": 328, "unit": "cpm/ml"}, {"measurement": "ATI dans les surnageants", "setting": "Bardac® 0,006 %, J27", "value": 588, "unit": "cpm/ml"}, {"measurement": "ATI dans les surnageants", "setting": "Bardac® 0,006 %, J30", "value": 196, "unit": "cpm/ml"}, {"measurement": "action virucide", "value": "ne sont pas virucides"}]}, {"smiles": "[H]/N=C(\\N/C(=N/[H])NCCCCCCNC(=N)NC(=N)Nc1ccc(Cl)cc1)Nc1ccc(Cl)cc1", "note": "[Chlorhexidine, digluconate de chlorhexidine, reference compound]", "values": [{"measurement": "ATI dans les surnageants", "setting": "Chlorhexidine 0,01 %, J3", "value": 262, "unit": "cpm/ml"}, {"measurement": "ATI dans les surnageants", "setting": "Chlorhexidine 0,01 %, J6", "value": 274, "unit": "cpm/ml"}, {"measurement": "ATI dans les surnageants", "setting": "Chlorhexidine 0,01 %, J10", "value": 200, "unit": "cpm/ml"}, {"measurement": "ATI dans les surnageants", "setting": "Chlorhexidine 0,01 %, J13", "value": 250, "unit": "cpm/ml"}, {"measurement": "ATI dans les surnageants", "setting": "Chlorhexidine 0,01 %, J17", "value": 230, "unit": "cpm/ml"}, {"measurement": "ATI dans les surnageants", "setting": "Chlorhexidine 0,01 %, J20", "value": 272, "unit": "cpm/ml"}, {"measurement": "ATI dans les surnageants", "setting": "Chlorhexidine 0,01 %, J23", "value": 456, "unit": "cpm/ml"}, {"measurement": "ATI dans les surnageants", "setting": "Chlorhexidine 0,01 %, J27", "value": 420, "unit": "cpm/ml"}, {"measurement": "ATI dans les surnageants", "setting": "Chlorhexidine 0,01 %, J30", "value": 276, "unit": "cpm/ml"}, {"measurement": "ATI dans les surnageants", "setting": "Chlorhexidine 0,002 %, J3", "value": 252, "unit": "cpm/ml"}, {"measurement": "ATI dans les surnageants", "setting": "Chlorhexidine 0,002 %, J6", "value": 352, "unit": "cpm/ml"}, {"measurement": "ATI dans les surnageants", "setting": "Chlorhexidine 0,002 %, J10", "value": 1304, "unit": "cpm/ml"}, {"measurement": "ATI dans les surnageants", "setting": "Chlorhexidine 0,002 %, J13", "value": 1752, "unit": "cpm/ml"}, {"measurement": "ATI dans les surnageants", "setting": "Chlorhexidine 0,002 %, J17", "value": 4288, "unit": "cpm/ml"}, {"measurement": "ATI dans les surnageants", "setting": "Chlorhexidine 0,002 %, J20", "value": 6138, "unit": "cpm/ml"}, {"measurement": "ATI dans les surnageants", "setting": "Chlorhexidine 0,002 %, J23", "value": 4614, "unit": "cpm/ml"}, {"measurement": "ATI dans les surnageants", "setting": "Chlorhexidine 0,002 %, J27", "value": 1616, "unit": "cpm/ml"}, {"measurement": "ATI dans les surnageants", "setting": "Chlorhexidine 0,002 %, J30", "value": 4528, "unit": "cpm/ml"}, {"measurement": "ATI dans les surnageants", "setting": "Chlorhexidine 0,005 %, J3", "value": 360, "unit": "cpm/ml"}, {"measurement": "ATI dans les surnageants", "setting": "Chlorhexidine 0,005 %, J6", "value": 374, "unit": "cpm/ml"}, {"measurement": "ATI dans les surnageants", "setting": "Chlorhexidine 0,005 %, J10", "value": 580, "unit": "cpm/ml"}, {"measurement": "ATI dans les surnageants", "setting": "Chlorhexidine 0,005 %, J13", "value": 742, "unit": "cpm/ml"}, {"measurement": "ATI dans les surnageants", "setting": "Chlorhexidine 0,005 %, J17", "value": 1902, "unit": "cpm/ml"}, {"measurement": "ATI dans les surnageants", "setting": "Chlorhexidine 0,005 %, J20", "value": 1126, "unit": "cpm/ml"}, {"measurement": "ATI dans les surnageants", "setting": "Chlorhexidine 0,005 %, J23", "value": 1226, "unit": "cpm/ml"}, {"measurement": "ATI dans les surnageants", "setting": "Chlorhexidine 0,005 %, J27", "value": 528, "unit": "cpm/ml"}, {"measurement": "ATI dans les surnageants", "setting": "Chlorhexidine 0,005 %, J30", "value": 720, "unit": "cpm/ml"}, {"measurement": "action virucide", "value": "ne sont pas virucides"}]}]}
